# Results published in patent US12545668B2, “Cyclic amine derivative as agent for promoting advillin function, and novel cyclic amine derivative and pharmaceutical use thereof” (Toray Industries, Inc., priority 2018, dated 2026).
# Columns and labels:
# [1] = system: sciatic nerve of a rat spinal nerve ligation model; assay: Actin filament/actin monomer ratio in the sciatic nerve of rat spinal nerve ligation model; format: in vivo
# Excerpt: The effect of the cyclic amine derivative (I) or a pharmacologically acceptable salt thereof on a ratio between the amount of actin filaments and the amount of actin monomers in the sciatic nerve of a rat spinal nerve ligation model was examined.
# Male SD rats (manufactured by Charles River Laboratories Japan, Inc.) of 6 weeks old were used. Each rat spinal nerve ligation model was produced by resecting the spine vertebral arch by incision of the right lower back under isoflurane inhalation anesthesia, completely ligating L5 and L6 nerve roots of the spinal nerve, and then suturing the muscular layer and the skin. As a negative control (sham-operation group), the right L5 and L6 nerves were exposed, and then the muscular layer and the skin were sutured similarly without ligation. One week after the nerve ligation, the rats were used to perform the following experiment. […]
# For quantitative determination of actin filaments and actin monomers, G-actin/F-actin in vivo assay kit (manufactured by Cytoskeleton Inc.) was used. […] The amount of actin in each of the actin monomer sample and the actin filament sample was measured by Western blotting. […] Luminescence intensity of a band corresponding to actin was quantitatively determined using Image Lab software (manufactured by Bio-Rad). […]
# [2] = system: primary cultured cells of rat dorsal root ganglion; assay: Axon (neurite) extension in primary cultured cells of rat dorsal root ganglion with oxaliplatin-induced axonal injury; format: cell-based; conditions: 7 days
# Excerpt: The effect of the cyclic amine derivative (I) or a pharmacologically acceptable salt thereof on neurite extension in primary cultured cells of rat dorsal root ganglion was examined.
# Male SD rats (manufactured by Charles River Laboratories Japan, Inc.) of 4 to 7 weeks old were used. Each rat was anesthetized by intraperitoneally administering urethane. After confirming that the rat was anesthetized, the rat was rapidly euthanized by exsanguination from the abdominal aorta. After incision of the dorsal part, the spinal column was excised and cooled on ice. The dorsal side of the spinal column was cut off, and the spinal cord was removed from the ventral side of the spinal column to expose the dorsal root ganglia on the ventral side of the spinal column. The dorsal root ganglia (L3 to 6, right and left) were excised with tweezers, and dipped in ice-cold Leibovitz's L-15 medium (manufactured by Thermo Fisher Scientific), and the bundles of nerve fibers were removed under a stereoscopic microscope. The dorsal root ganglia from which the bundles of nerve fibers had been removed were made fine slits with ophthalmic scissors to be used as dorsal root ganglion pieces.
# The dorsal root ganglion pieces were dipped in about 3 mL of a solution of collagenase A (manufactured by Roche Molecular Systems, Inc.), followed by incubation at 37° C. for 20 minutes. After the incubation, the resultant was centrifuged at 200×g at 25° C. for 5 minutes to remove a collagenase A solution corresponding to the supernatant. About 1 mL of a solution of trypsin was added thereto, followed by incubation at 37° C. for 5 minutes. Subsequently, about 3 mL of DMEM (manufactured by Thermo Fisher Scientific K.K.) containing 10% fetal bovine serum was added to the resultant, the resultant centrifuged at 200×g at room temperature for 5 minutes, and then the supernatant removed. […]
smiles,measurement,setting,value
"CN(C)C1CCN(C(=O)C[C@H](O)c2nccn2C)CC1 [Example 7, (S)-1-(4-(dimethylamino)piperidin-1-yl)-3-hydroxy-3-(1-methyl-1H-imidazol-2-yl)propan-1-one]",actin filament/actin monomer ratio compared to the distilled water administration group,"[1]; oral 60 mg/kg once a day for 2 days, sciatic nerve, p<0.025 Williams",significantly reduced
same,actin filament/actin monomer ratio,"[1]; oral 6, 20 and 60 mg/kg once a day for 2 days, sciatic nerve 3 hours after last administration, FIG. 3b",reduced as the dose of the compound of Example 7 was increased
same,length of a neurite compared to the oxaliplatin alone treated group,"[2]; 100 μM with oxaliplatin 3 μM, FIG. 4, FIG. 5, p<0.025 Williams",significantly increased
same,length of a neurite compared to the oxaliplatin alone treated group,"[2]; 10, 30 or 100 μM with oxaliplatin 3 μM, FIG. 5",found to increase
